Laboratory results taken from US20060281807A1, “Quassinoid compositions for the treatment of cancer and other proliferative diseases” (Tapestry Pharmaceuticals, Inc., priority 2005, published 2006).
In brackets after ≈: the same amount, converted by molar mass. Several values for one entry are separate records, joined by “and”; a condition that tells them apart may be missing. Equal values may be shown once.

Columns and labels:
SK-N-AS = assay: MTT cytotoxicity assay (% kill), SK-N-AS; type: cell-based, human; settings: 1.0 μg/mL, MTT after five days
Procedure: (§1) The following human tumor cell lines were obtained and cultured in sextuplicate microwells at 37° C. and 5% CO2 in humidified air and in 10% FBS in Eagles MEM: SK—N—FI, SK—N-AS, LS-174T, WiDr, HuTu-80, MCF7, NCI-AR, MES-Sar, and PL-45. Cells from each cell line were separately treated with an amount of one of the compounds of Formula I, II, or III (see Table 1). Cells were exposed to each compound (0.1 μg/mL or 1.0 μg/mL) for one hour or 24 hours, rinsed with drug-free media, and incubated for an additional five days. The number of viable cells after five days was measured using an MTT (3-(4,5-dimethylthiazol-2-yl)-2,5-diphenyltetrazolium bromide) assay (see, e.g., Mosmann, J. Immunol. Methods, 65(1-2), 55-63 (1983)).
(§2) The cytotoxicity of each drug was determined and expressed as the percent of cells killed (“% kill”).

LS-174T = assay: MTT cytotoxicity assay (% kill), LS-174T; type: cell-based, human; settings: 1.0 μg/mL, MTT after five days
Procedure: as §1, §2

[1] = test system: Colon 38 (murine colon adenocarcinoma); assay: Disk diffusion assay, zone of inhibition, Colon 38; zone differentials, potency and product; type: cell-based; set-up: key to C38ΔL1210 / C38ΔCFU: difference of zone of inhibition values, in zone units; settings: for Sum: C38ΔL1210 plus C38ΔCFU; for C38ΔL1210 / C38ΔCFU: difference between zone of inhibition values; for C38ΔL1210: Colon38 vs L1210 leukemia; for C38ΔCFU: Colon38 vs normal cell CFU-GM; for Product: potency multiplied by zone differentials; for zone of inhibition, Colon 38: 1 mg/mL
Procedure: (§3) A disk diffusion assay was performed to define the differential cell killing ability of 15-O-(3′-hydroxy-3′-isopropyl-4′-methylpentanoyl)bruceolide. Seven cell types were assayed: L1210 (ATCC CCL-219) (murine leukemia), CCRF-CEM (ATCC CCL-119) (human leukemia), Colon 38 (murine colon adenocarcinoma), HCT116 (ATCC CCL-247) (human colorectal carcinoma), H125 (human lung carcinoma). The murine and human granulocyte/macrophage progenitor cell line (CFU-GM), served as controls.
(§4) Colon 38 cells (about 1 gram) were cut into small fragments in 15 mL of Hank's Balanced Salt Solution (HBSS) over a 100-mesh sieve and gently forced through by the scissors with HBSS constantly perfusing the sieve. The resulting material was then drawn into and out of a 5 mL syringe without a needle to further disperse the cell clumps. The cell solution was diluted and plated in 0.3% agarose in DMEM plus 10% heat-inactivated Bovine Calf Serum (BCS). For plating of all of the cell types (except controls), the 60 mm plates were first prepared with a hard agar bottom layer (0.6% agar in RPMI-1640 plus 15% BCS).
(§5) A 15 μl sample of each compound was dropped onto a 6.5 mm disk (Baxter filter disks). The disks were allowed to dry overnight and then placed close to the edge of a petri dish. Depending upon the cell type, the dishes were incubated for 7 to 10 days, and examined by an inverted stereo-microscope (10×) for measurement of the zone of inhibition. The zone of inhibition was measured from the edge of the filter disk to the beginning of normal-sized colony formation. The diameter of the filter disk, 6.5 mm, was arbitrarily taken as a zone of 200 units. Compounds that were selective for killing solid tumors, as compared to leukemia or normal cells (“solid tumor selective”) were defined as those compounds which produced a difference in zones between solid tumor cells and either normal or leukemia cells of at least 250 units. The results of this analysis are set forth in Table 4, which illustrates the relative diameters of the zones of inhibition by various drugs on the growth of the respective cell types at various drug dilutions.
The degree of differential sensitivity of several inventive compounds was compared with respect to the Colon38 cell line, the L1210 cell line, and the control CFU-GM cell lines. The degree of differential sensitivity was estimated by calculating the difference between the zone of inhibition values, as determined in Example 6, for the solid tumor compared to either the leukemia (C38ΔL1210) or normal cell (C38ΔCFU).
The potency of each of several inventive compounds was determined by identifying the dilution required to yield an average zone of inhibition of 500 units for the Colon38 cell type. Then the potency and the zone differentials were multiplied to define a “product” (see Table 5), which can be used to rank the compounds tested for their potential for further development; the greater the product value the greater the probability of useful chemotherapeutic utility.

L1210 (murine leukemia) = assay: Disk diffusion assay, zone of inhibition, L1210; type: cell-based; settings: 1 mg/mL
Procedure: as §3, §4, §5

[2] = test system: HCT116 (human colorectal carcinoma); assay: Disk diffusion assay, zone of inhibition, HCT116; type: cell-based; settings: 1 mg/mL
Procedure: as §3, §4
(§6) HCT116 and H125 cells were maintained in cell culture, and were removed from culture by a trypsin-collagenase-DNAase cocktail. The plating efficiencies of each cell type was sufficiently high that 30,000 cells in 3 mL produced the desired number of colonies (i.e., over 10,000 per plate) in 60 mm plates. This soft agar top layer (0.3% with the serum and media as above) plus the titrated tumor cells were poured into the plates and allowed to solidify.
as §5

[3] = test system: H125 (human lung carcinoma); assay: Disk diffusion assay, zone of inhibition, H125; type: cell-based; settings: 1 mg/mL
Procedure: as §3, §4, §6, §5

[4] = test system: CCRF-CEM (human leukemia); assay: Disk diffusion assay, zone of inhibition, CCRF-CEM; type: cell-based; settings: 1 mg/mL
Procedure: as §3, §4, §5

murine CFU-GM = assay: Disk diffusion assay, zone of inhibition, murine CFU-GM; type: cell-based; settings: 1 mg/mL
Procedure: as §3
For CFU-GM cells, the femoral marrow of BD2F1 mice was flushed with MEM alpha (2 mL per femur). The cells were passed through an 18 gauge needle twice and the monodispersed suspension was counted. A total of 1.5×10^6 cells were plated in 3 mL of 0.3% agar with the addition of 10% L cell conditioned media, which provided colony stimulating factor, in MEM-alpha plus 10% BCS. For human CFU-GM, the cells were obtained from Poietic Technologies, Inc. (Gaithersburg, Md.) and washed twice with PBS before being titered and added to the agar mixture. The same cell number, culture conditions, and conditioning factors used with respect to the murine CFU-GM cells were used with the human cells, except that the cultures were assessed after 10 days of incubation.
as §5

HCT-116 cells [5] = assay: HCT-116 cytotoxicity, viable cell count by trypan blue; type: cell-based, human
HCT-116 cells [6] = assay: Clonogenic assay, HCT-116; type: cell-based, human; settings: colonies at 7 days
Procedure: A clonogenic assay was performed using HCT-116 cells. Specifically, HCT-116 cells were seeded at 200 to 20,000 cells in 60 mm dishes. […] At either 2 hours or 24 hours following drug administration, the drug-containing media was removed, and fresh media without drug was added. In addition, one group of cells was subjected to continuous drug exposure for the entire incubation period. The dishes were incubated for 7 days (at 37° C. and 5% CO2), media was removed, and the colonies were stained with methylene blue. Colonies containing 50 cells or more were counted. The results were normalized to an untreated control. Plating efficiency for the untreated cells was about 90%. Repeat experiments also were carried out to define the cell survival range between 1 (100%) and 10^−3 (0.1%) survival. A survival rate of 10^−1 was chosen as the minimal level that would be required in vivo to achieve therapeutic efficacy against HCT-116 cells in tumor-bearing mice. The clonogenic dose response to 15-O-(3′-hydroxy-3′-isopropyl-4′-methylpentanoyl)bruceolide is illustrated in FIG. 4. The clonogenic dose response to 15-(3-isopropyl-4-methyl-2-pentenoyl)-bruceolide is illustrated in FIG. 5.

[7] = no dilution, 15 μl on disk, 6.5 mm = 200 units

SMILES: COC(=O)C12OCC34C(CC5C(C)=C(O)C(=O)CC5(C)C3C(O)C1O)OC(=O)C(OC(=O)CC1(O)CCCCC1)C24 (centres unmarked) [15-O-[(1′-hydroxycyclohexyl)-acetyl]-bruceolide]
- % Kill, SK-N-AS (SK-N-AS; 1 h exposure): 16%
- % Kill, SK-N-AS (SK-N-AS; 24 h exposure): 80%
- % Kill, LS-174T (LS-174T; 1 h exposure): 23%
- % Kill, LS-174T (LS-174T; 24 h exposure): 62%
- Sum [1]: 750
- C38ΔL1210 [1]: 300
- C38ΔCFU [1]: 450
- Product [1]: 3000

SMILES: CCCCCC(=O)OC1C(=O)OC2CC3C(C)=C(O)C(=O)CC3(C)C3C(O)C(O)C4(C(=O)OC)OCC23C14 (centres unmarked) [15-O-hexanoylbruceolide]
- % Kill, SK-N-AS (SK-N-AS; 1 h exposure): 0%
- % Kill, SK-N-AS (SK-N-AS; 24 h exposure): 41%
- % Kill, LS-174T (LS-174T; 1 h exposure): 19%
- % Kill, LS-174T (LS-174T; 24 h exposure): 57%
- Sum [1]: 600
- C38ΔL1210 [1]: 400
- C38ΔCFU [1]: 200
- Product [1]: 600

SMILES: COC(=O)C12OCC34C(CC5C(C)=C(O)C(=O)CC5(C)C3C(O)C1O)OC(=O)C(OC(=O)Cc1ccccc1)C24 (centres unmarked) [15-O-phenylacetyl bruceolide]
- % Kill, SK-N-AS (SK-N-AS; 1 h exposure): 0%
- % Kill, SK-N-AS (SK-N-AS; 24 h exposure): 38%
- % Kill, LS-174T (LS-174T; 1 h exposure): 20%
- % Kill, LS-174T (LS-174T; 24 h exposure): 61%
- Sum [1]: 1000
- C38ΔL1210 [1]: 500
- C38ΔCFU [1]: 500
- Product [1]: 4000

SMILES: CC1=CC(=O)[C@@H](O)[C@]2(C)[C@H]3[C@@]4(O)OC[C@]35[C@H]([C@@H](C)[C@H]4O)[C@@H](O)C(=O)O[C@@H]5C[C@@H]12 [Glaucarubolone, glaucarubolone]
- zone of inhibition, L1210 (L1210 (murine leukemia); dilution 1/100): 0 units
- zone of inhibition, L1210 (L1210 (murine leukemia); dilution 1/1000): 0 units
- zone of inhibition, L1210 (L1210 (murine leukemia); [7]): 400 units
- zone of inhibition, Colon 38 ([1]; dilution 1/10): >1000 units and 600 units
- zone of inhibition, Colon 38 ([1]; dilution 1/40): 400 units
- zone of inhibition, Colon 38 ([1]; dilution 1/100): 400 units
- zone of inhibition, Colon 38 ([1]; dilution 1/1000): 0 units
- zone of inhibition, Colon 38 [1, 7]: >1000 units
- Sum [1]: 1150 and 800
- C38ΔL1210 [1]: 550 and 400
- C38ΔCFU [1]: 600 and 400
- Product [1]: 4600 and 3600
- zone of inhibition, H-116 ([2]; dilution 1/10): 600 units
- zone of inhibition, H-116 ([2]; dilution 1/100): 0 units
- zone of inhibition, H-116 ([2]; dilution 1/1000): 0 units
- zone of inhibition, H-116 [2, 7]: >1000 units
- zone of inhibition, H-125 M ([3]; dilution 1/10): 700 units
- zone of inhibition, H-125 M ([3]; dilution 1/100): 0 units
- zone of inhibition, H-125 M ([3]; dilution 1/1000): 0 units
- zone of inhibition, H-125 M [3, 7]: >1000 units
- zone of inhibition, CEM ([4]; dilution 1/10): 600 units
- zone of inhibition, CEM ([4]; dilution 1/100): 0 units
- zone of inhibition, CEM ([4]; dilution 1/1000): 0 units
- zone of inhibition, CEM [4, 7]: 900 units
- zone of inhibition, murine CFU-GM (murine CFU-GM; dilution 1/10): 0 units
- zone of inhibition, murine CFU-GM (murine CFU-GM; dilution 1/40): 0 units
- zone of inhibition, murine CFU-GM (murine CFU-GM; dilution 1/100): 0 units
- zone of inhibition, murine CFU-GM (murine CFU-GM; dilution 1/1000): 0 units
- zone of inhibition, murine CFU-GM (murine CFU-GM; [7]): 50 units
- IC90/IC50 (HCT-116 cells [5]; HCT-116): 58
- IC50 (HCT-116 cells [5]; Homo sapiens, 72 h, HCT-116, 3 days with compound, viable cells, by interpolation, read-out: IC50): 0.04 µg/mL (≈ 0.101 µM)
- IC90 (HCT-116 cells [5]; Homo sapiens, 72 h, HCT-116, 3 days with compound, viable cells, by interpolation, read-out: IC90): 2.3 µg/mL (≈ 5.83 µM)
- Concentration Required for 10^−1 Survival Fraction (HCT-116 cells [6]; HCT-116, 2 Hour Exposure): >10 μg/mL
- Concentration Required for 10^−1 Survival Fraction (HCT-116 cells [6]; HCT-116, 24 Hour Exposure): 1 × 10^0 μg/mL
- Concentration Required for 10^−1 Survival Fraction (HCT-116 cells [6]; HCT-116, Continuous Exposure): 2 × 10^−2 μg/mL
